# Data as given in PubChem BioAssay (NCI).
#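 96-well plates; 48 h exposure; 5 concentrations. Endpoints by linear interpolation between flanking doses. Not reached: highest tested concentration assigned. TGI denotes the concentration required for complete inhibition of growth.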
# How the values were obtained:
# Assay in all cases: inhibition of tumour cell growth, NCI panel, 48 h
# SW-620 colon = test system: SW-620 colon
# PC-3 prostate = test system: PC-3 prostate
# HOP-62 NSCLC = test system: HOP-62 NSCLC
# OVCAR-4 ovarian = test system: OVCAR-4 ovarian
# MDA-MB-231 breast = test system: MDA-MB-231 breast
# HCC-2998 colon = test system: HCC-2998 colon
# COLO 205 colon = test system: COLO 205 colon
# HOP-92 NSCLC = test system: HOP-92 NSCLC
# NCI-H226 lung = test system: NCI-H226 lung
# NCI-H460 lung = test system: NCI-H460 lung
# UACC-257 melanoma = test system: UACC-257 melanoma
# HS 578T breast = test system: HS 578T breast
# OVCAR-3 ovarian = test system: OVCAR-3 ovarian
# HCT-15 colon = test system: HCT-15 colon
# RXF 393 renal = test system: RXF 393 renal
# MCF7 breast = test system: MCF7 breast
# SK-OV-3 ovarian = test system: SK-OV-3 ovarian
# HL-60(TB) leukemia = test system: HL-60(TB) leukemia
# MDA-MB-435 = test system: MDA-MB-435
# MOLT-4 leukemia = test system: MOLT-4 leukemia
# TK-10 renal = test system: TK-10 renal
# SNB-75 CNS = test system: SNB-75 CNS
# SF-539 CNS = test system: SF-539 CNS
# SN12C renal = test system: SN12C renal
# CCRF-CEM leukemia = test system: CCRF-CEM leukemia
# K-562 leukemia = test system: K-562 leukemia
# SF-295 CNS = test system: SF-295 CNS
# HCT-116 colon = test system: HCT-116 colon
# ACHN renal = test system: ACHN renal
# SK-MEL-5 melanoma = test system: SK-MEL-5 melanoma
# IGROV1 ovarian = test system: IGROV1 ovarian
# SK-MEL-28 melanoma = test system: SK-MEL-28 melanoma
# OVCAR-8 ovarian = test system: OVCAR-8 ovarian
# NCI-H23 lung = test system: NCI-H23 lung
# MDA-N = test system: MDA-N
# T-47D breast = test system: T-47D breast
# HT29 colon = test system: HT29 colon
# SNB-19 CNS = test system: SNB-19 CNS
# MALME-3M melanoma = test system: MALME-3M melanoma
# SF-268 CNS = test system: SF-268 CNS
# UACC-62 melanoma = test system: UACC-62 melanoma
# M14 melanoma = test system: M14 melanoma
# U251 CNS = test system: U251 CNS
# NCI-H522 lung = test system: NCI-H522 lung
# BT-549 breast = test system: BT-549 breast
# EKVX NSCLC = test system: EKVX NSCLC
# RPMI-8226 leukemia = test system: RPMI-8226 leukemia
# SK-MEL-2 melanoma = test system: SK-MEL-2 melanoma
# DU-145 prostate = test system: DU-145 prostate
# KM12 colon = test system: KM12 colon
# NCI/ADR-RES ovarian = test system: NCI/ADR-RES ovarian
# A549 NSCLC = test system: A549 NSCLC
# 786-0 renal = test system: 786-0 renal
# UO-31 renal = test system: UO-31 renal
# CAKI-1 renal = test system: CAKI-1 renal
# SR leukemia = test system: SR leukemia
# A498 renal = test system: A498 renal
# LOX IMVI melanoma = test system: LOX IMVI melanoma
# OVCAR-5 ovarian = test system: OVCAR-5 ovarian
compound,measurement,setting,value
COc1ccc(C(=O)C#Cc2cn(C3CC(O)C(CO)O3)c(=O)[nH]c2=O)cc1 (configuration not stated),TGI,SW-620 colon,> 100 µM
same,TGI,PC-3 prostate,> 100 µM
same,TGI,HOP-62 NSCLC,> 100 µM
same,TGI,OVCAR-4 ovarian,> 100 µM
same,TGI,MDA-MB-231 breast,> 100 µM
same,TGI,HCC-2998 colon,> 100 µM
same,TGI,COLO 205 colon,> 100 µM
same,TGI,HOP-92 NSCLC,45.9 µM
same,TGI,NCI-H226 lung,> 100 µM
same,TGI,NCI-H460 lung,> 100 µM
same,TGI,UACC-257 melanoma,> 100 µM
same,TGI,HS 578T breast,> 100 µM
same,TGI,OVCAR-3 ovarian,34.9 µM
same,TGI,HCT-15 colon,> 100 µM
same,TGI,RXF 393 renal,> 100 µM
same,TGI,MCF7 breast,> 100 µM
same,TGI,SK-OV-3 ovarian,> 100 µM
same,TGI,HL-60(TB) leukemia,> 10 µM
same,TGI,MDA-MB-435,> 100 µM
same,TGI,MOLT-4 leukemia,> 100 µM
same,TGI,TK-10 renal,> 100 µM
same,TGI,SNB-75 CNS,> 100 µM
same,TGI,SF-539 CNS,45.1 µM
same,TGI,SN12C renal,> 100 µM
same,TGI,CCRF-CEM leukemia,> 10 µM
same,TGI,K-562 leukemia,> 100 µM
same,TGI,SF-295 CNS,> 100 µM
same,TGI,HCT-116 colon,> 100 µM
same,TGI,ACHN renal,> 100 µM
same,TGI,SK-MEL-5 melanoma,> 100 µM
same,TGI,IGROV1 ovarian,> 100 µM
same,TGI,SK-MEL-28 melanoma,50.5 µM
same,TGI,OVCAR-8 ovarian,> 100 µM
same,TGI,NCI-H23 lung,> 100 µM
same,TGI,MDA-N,> 100 µM
same,TGI,T-47D breast,35.4 µM
same,TGI,HT29 colon,> 100 µM
same,TGI,SNB-19 CNS,> 100 µM
same,TGI,MALME-3M melanoma,22.7 µM
same,TGI,SF-268 CNS,> 100 µM
same,TGI,UACC-62 melanoma,> 100 µM
same,TGI,M14 melanoma,75 µM
same,TGI,U251 CNS,> 100 µM
same,TGI,NCI-H522 lung,24.5 µM
same,TGI,BT-549 breast,40.4 µM
same,TGI,EKVX NSCLC,> 100 µM
same,TGI,RPMI-8226 leukemia,> 100 µM
same,TGI,SK-MEL-2 melanoma,> 100 µM
same,TGI,DU-145 prostate,> 100 µM
same,TGI,KM12 colon,> 100 µM
same,TGI,NCI/ADR-RES ovarian,> 100 µM
same,TGI,A549 NSCLC,> 100 µM
same,TGI,786-0 renal,> 100 µM
same,TGI,UO-31 renal,> 100 µM
same,TGI,CAKI-1 renal,> 100 µM
CSc1ncnc2c1ncn2CCC(=O)O,TGI,SW-620 colon,> 100 µM
same,TGI,PC-3 prostate,> 100 µM
same,TGI,HOP-62 NSCLC,> 100 µM
same,TGI,OVCAR-4 ovarian,> 100 µM
same,TGI,MDA-MB-231 breast,> 100 µM
same,TGI,SR leukemia,> 100 µM
same,TGI,COLO 205 colon,> 100 µM
same,TGI,HOP-92 NSCLC,> 100 µM
same,TGI,NCI-H226 lung,> 100 µM
same,TGI,NCI-H460 lung,> 100 µM
same,TGI,UACC-257 melanoma,> 100 µM
same,TGI,OVCAR-3 ovarian,> 100 µM
same,TGI,RXF 393 renal,> 100 µM
same,TGI,A498 renal,> 100 µM
same,TGI,MCF7 breast,> 100 µM
same,TGI,SK-OV-3 ovarian,> 100 µM
same,TGI,HL-60(TB) leukemia,> 100 µM
same,TGI,MDA-MB-435,> 100 µM
same,TGI,MOLT-4 leukemia,> 100 µM
same,TGI,TK-10 renal,> 100 µM
same,TGI,SNB-75 CNS,> 100 µM
same,TGI,SF-539 CNS,> 100 µM
same,TGI,SN12C renal,> 100 µM
same,TGI,CCRF-CEM leukemia,> 100 µM
same,TGI,K-562 leukemia,> 100 µM
same,TGI,SF-295 CNS,> 100 µM
same,TGI,LOX IMVI melanoma,> 100 µM
same,TGI,HCT-116 colon,> 100 µM
same,TGI,ACHN renal,> 100 µM
same,TGI,SK-MEL-5 melanoma,> 100 µM
same,TGI,IGROV1 ovarian,> 100 µM
same,TGI,SK-MEL-28 melanoma,> 100 µM
same,TGI,OVCAR-8 ovarian,> 100 µM
same,TGI,NCI-H23 lung,> 100 µM
same,TGI,MDA-N,> 100 µM
same,TGI,HT29 colon,> 100 µM
same,TGI,SNB-19 CNS,> 100 µM
same,TGI,MALME-3M melanoma,> 100 µM
same,TGI,SF-268 CNS,> 100 µM
same,TGI,UACC-62 melanoma,> 100 µM
same,TGI,M14 melanoma,> 100 µM
same,TGI,NCI-H522 lung,> 100 µM
same,TGI,EKVX NSCLC,> 100 µM
same,TGI,RPMI-8226 leukemia,> 100 µM
same,TGI,DU-145 prostate,> 100 µM
same,TGI,KM12 colon,> 100 µM
same,TGI,OVCAR-5 ovarian,> 100 µM
same,TGI,NCI/ADR-RES ovarian,> 100 µM
same,TGI,A549 NSCLC,> 100 µM
same,TGI,786-0 renal,> 100 µM
same,TGI,UO-31 renal,> 100 µM
same,TGI,CAKI-1 renal,> 100 µM
